Results: patent publication US20240325437A1, “METHODS AND COMPOSITIONS FOR USE IN IMPROVING ADAPTIVE IMMUNITY IN THE ELDERLY POPULATION” (Technion Research & Development Foundation Limited, priority 2023, published 2024)
“Also recorded” adds a separate entry of the source. Read-outs that look alike come from different tables or passages of the source.

Legend:
[1] = system: CD3+ T cells derived from young mice; assay: Viability of young T cells cultured with heme or spleen extract (Zombie, flow cytometry); type: cell-based, mouse; conditions: for viability of T cells: with and without agent
Text: (§1) T cell isolation and culture. T cells were harvested from mice spleens and/or lymph nodes (inguinal, axillary, brachial, mandibular, and jejunal), and purified by magnetic separation. Depending on the specific experiment, either bulk CD3^+ T cells or bulk CD3^+CD4^+ T cells or pure naïve (CD3^+CD4^+CD62L^+ CD441^lo CD25^−) T cells were purified using commercially available kits (StemCell, 19765A, 19852A, 19851A), following the manufacturer instructions. The protocol for isolating pure naïve T cells from aged mice was modified, as additional antibodies were added to the initial antibody cocktail to overcome changes in T cell population composition in the aged. Specifically, biotinylated anti-mouse/human CD44 (BioLegend, IM7), and biotinylated anti-mouse CD25 (miltenyi 130-123-860, REA568), were added to the company's premade antibody cocktail for negative selection of lymphocytes. Furthermore, the present inventors performed a step of positive selection of CD62L^+ naïve T cells, using anti-mouse CD62L microbeads (miltenyi, 130-049-701) and magnetic columns (miltenyi, 130-042-201). Primary T cells were cultured at 37° C. and 5% CO2 in RPMI media, supplemented with: 10% FBS, 10 mM Hepes, penicillin/streptomycin, and 0.035% beta-mercaptoethanol. For activation, cells were cultured on plates pre-coated (overnight at 4° C.) with anti-CD3 (2 μg/mL; clone 145-2C11, BioXCell) and anti-CD28 (4 μg/mL, clone 37.51; BioXCell). Resting cells were supplemented with 5 ng/ml recombinant murine IL-7 (PEPROTECH, 217-17). In some experiments, cell cultures were supplemented with hemin chloride (cayman, 16487), ammonium iron (III) citrate (thermos scientific, A11199.30), BSA (Sigma-Aldrich, A9647), and spleen extract, at different concentrations, as indicated in relevant experiments.
Collection of a interstitial fluid-enriched fraction (referred to as spleen extract; SE). Spleens from young or aged mice were harvested, and gently dissociated ontop of a […] cell strainer, in 5 mL PBS or RPMI, 5 min centrifugation at 1350 RPM to separate the cellular pellet from the fluidic fraction, enriched with interstitial components.
(§2) Flow cytometry. […] Intracellular ferrous iron was measured using FerroOrange (Dojindo F374).

[2] = system: CD3+ T cells derived from young mice; assay: Proliferation of young T cells stimulated ex vivo with anti-CD3/anti-CD28 (cell trace violet); type: cell-based, mouse
Text: as §1, §2

aged T cells [3] = assay: Survival of aged T cells ex vivo; type: cell-based, mouse; conditions: aged T cells (not shown)
Experimental: (§3) Flow cytometry. For cell-surface staining, cultured T cells or freshly isolated T cells were resuspended in a separation buffer (PBS containing 2% FBS and 2 mM EDTA) and incubated for 20 min, on ice, with an antibody mix, supplemented purified anti-mouse CD16/32 (Biolegend, clone 93). For intracellular staining, True-Nuclear™ Transcription Factor Buffer Set (Biolegend, 424401) was used, following the manufacturer's protocol. […] Cell viability was assessed by Zombie violet or Zombie NIR™ Fixable Viability Kits (423114, 423105, biolegend). Cell proliferation was assessed by cell trace violet proliferation kit (C34557, Invitrogen). Lysosomal activity was determined using a lysosomal intracellular activity assay kit (ab234622) according to the manufacturer's instructions. Intracellular ferrous iron was measured using FerroOrange (Dojindo F374). Cells were incubated with […] of FerroOrange in HBSS at 37° C. for 40 minutes, and analyzed by flow cytometry. For Lysotracker staining, cells were incubated with 62.5 nM of lysotracker deep red (Invitrogen L12492) in HBSS at 37° C. for 40 minutes and analyzed by flow cytometry. All data were collected on the Attune NxT Flow Cytometer (Thermo Fisher) and analyzed using FlowJo (BD).

aged T cells [4] = assay: Proliferation of aged T cells activated ex vivo (CellTrace Violet); type: cell-based, mouse; conditions: for aged T cells proliferation: aged T cells activated ex vivo with and without agent
Text: as §1, §2

aged T cells [5] = assay: Labile iron (FerroOrange) in aged T cells; type: cell-based, mouse
Experimental: as §2
(§4) Functional assays and intracellular ferrous iron staining. Intracellular ferrous iron was measured using FerroOrange (Dojindo, F374). […] All assays were analyzed by flow cytometry.

[6] = system: CD4+ and CD8+ T cells derived from the aged spleen; assay: Ferroptosis resistance to RSL3 of T cells from aged spleen after adoptive transfer; type: cell-based, mouse; conditions: CD4+ vs CD8+ T cells from aged spleen, TdTomato+ and TdTomato−
Text: Adoptive T cell transfer. Young T cells were isolated from spleens of young OTII td-tomato transgenic mice (8-12 weeks-old) by magnetic isolation (StemCell), as described above. […] Two weeks following cell transfer, mice were euthanized and spleen and lymph nodes (inguinal, axillary, brachial, mandibular, and jejunal) were extracted for further analysis.
The present inventors hypothesized that ferroptosis resistance was accomplished by maintaining low cellular iron levels. To test this, FerroOrange was employed, a fluorescent probe that interacts with cellular ferrous ion (Fe^+2), to measure changes in labile iron in T cells following activation. In young T cells, labile iron pools increased as early as 9 hr post-activation and continued rising until 72 hrs (FIG. 5A). Iron levels varied across different populations as Ferro-Orange fluorescence intensity was higher in CD8^+ compared to CD4^+ T cells, pre- and post-activation (FIG. 5B). […] A major pathway for increasing cellular iron is the uptake of transferrin-bound iron, mediated by the transferrin receptor (TFR1), also known as CD71. […] In agreement with the observed differences in labile iron, CD8^+ T cells expressed higher levels of CD71 compared to CD4^+ T cells (FIG. 5F). […]

[7] = system: CD3+ T cells derived from the spleen of young and aged mice; assay: Ferroptosis tolerance: viability of young and aged T cells treated with RSL; type: cell-based, mouse; conditions: increasing doses of RSL, 48 hrs, young vs aged T cells; listed as RSL
Text: (§5) T cell isolation and culture. T cells were harvested from mice spleens and/or lymph nodes (inguinal, axillary, brachial, mandibular, and jejunal), and purified by magnetic separation. Depending on the specific experiment, either bulk CD3^+ T cells or bulk CD3^+CD4^+ T cells or pure naïve (CD3^+CD4^+CD62L^+ CD441^lo CD25^−) T cells were purified using commercially available kits (StemCell, 19765A, 19852A, 19851A), following the manufacturer instructions. The protocol for isolating pure naïve T cells from aged mice was modified, as additional antibodies were added to the initial antibody cocktail to overcome changes in T cell population composition in the aged. Specifically, biotinylated anti-mouse/human CD44 (BioLegend, IM7), and biotinylated anti-mouse CD25 (miltenyi 130-123-860, REA568), were added to the company's premade antibody cocktail for negative selection of lymphocytes. Furthermore, the present inventors performed a step of positive selection of CD62L^+ naïve T cells, using anti-mouse CD62L microbeads (miltenyi, 130-049-701) and magnetic columns (miltenyi, 130-042-201). […]
as §2
Albumin is the most abundant heme binding protein in the serum. […] The present inventors hypothesized that the unique protein signature measured in aged T cells (FIG. 2H) allows them to survive this hostile microenvironment. […]

[8] = system: T cells response to vaccination; conditions: cited from earlier work
aged T cells [9] = system: aged T cells
Experimental: as §3

[10] = system: OVA-specific OTI and OTII T cells in aged recipients; conditions: aged mice, OVA/Alum i.p., FAC i.v. on days 1 and 3, spleen on day 5
Experimental: Control mice were injected with saline. […] Control mice received saline.

aged T cells [11] = conditions: 24 hr post-activation
Experimental: Functional assays and intracellular ferrous iron staining. Intracellular ferrous iron was measured using FerroOrange (Dojindo, F374). Following extracellular staining, cells were incubated with 1 μM of FerroOrange in HBSS at 37° C. for 30 minutes in a 5% CO2 incubator, and immediately taken for analysis. For Mitochondrial ferrous iron measurement, cells were incubated with 5 μM of Mito-FerroGreen (Dojindo, M489) in HBSS at 37° C. for 30 minutes in a 5% CO2 incubator, washed twice. […] All assays were analyzed by flow cytometry.

T cells [12] = assay: Lysosomal intracellular activity assay; type: cell-based, mouse; conditions: T cells activated in the presence of heme
T cells [13] = assay: Lysosomal mass (lysotracker; flow cytometry and fluorescent microscopy); type: cell-based, mouse; conditions: T cells +/- activation +/- heme
Experimental: as §2
Fluorescent microscopy. Cells were stained simultaneously with lysotracker deep red and FerroOrange in HBSS as described above, and imaged using Leica DMI8 inverted fluorescent microscope.

[14] = system: CD3+ T cells derived from young mice; assay: Expression of ferritin, HO-1 and CD39 in young T cells by flow cytometry; type: cell-based, mouse; conditions: young T cells exposed to heme
Text: as §1, §2

resting young T cells = assay: FOXO1 levels in resting young T cells by flow cytometry; type: cell-based, mouse; conditions: resting young T cells incubated ex vivo for 4-48 hr
Experimental: as §2
Lysosomal dysfunction results in accumulation of late endosomes, also referred to as multi vesicular bodies (MVBs), that are identified by expression of CD63. […] FOXO1 regulates expression of TFEB, the master regulator of lysosomal biogenesis^17. Moreover, FOXO1 expression is critical for maintaining T cell quiescence, and its deficiency induces T cell senescence^18. The present inventors hypothesized that the microenvironment in the aged spleen suppressed FOXO1 expression, thus inducing T cell priming (FIG. 7E-G) and dysregulates lysosomal biogenesis and activity. To test this hypothesis, FOXO1 levels were quantified in resting young T cells that were incubated ex vivo with either heme or SE.

young T cells [15] = assay: Cellular ROS (DCFDA) in young T cells; type: cell-based, mouse; conditions: T cells exposed to heme, 48 hr
Experimental: as §4

young T cells [16] = assay: Lipid peroxidation (BODIPY 581/591 C11) in young T cells; type: cell-based, mouse; conditions: T cells exposed to heme
[17] = system: T cells derived from young mice; assay: Immunophenotyping of young T cells after ex vivo incubation with heme; type: cell-based, mouse; conditions: young T cells incubated with heme, without TCR-mediated stimulation
Text: as §5, with “130-042-201). Primary T cells were cultured at 37° C. and 5% CO2 in RPMI media, supplemented with: 10% FBS, 10 mM Hepes, penicillin/streptomycin, and 0.035% beta-mercaptoethanol.” for “130-042-201).”
as §2

T cells [18] = assay: CD63 expression on T cells by flow cytometry; type: cell-based, mouse; conditions: T cells cultured with heme at different concentrations
Experimental: as §2

CC(=O)N(O)CCCCCNC(=O)CCC(=O)N(O)CCCCCNC(=O)CCC(=O)N(O)CCCCCN [DFO]
cell viability ([1]; young T cells cultured with spleen extract plus DFO): partially rescued cell viability

CC(=O)N[C@@H](CS)C(=O)O [NAC, N-acetyl cysteine]
viability of T cells ([1]; young T cells activated 48 hr in the presence of SE): improved cell viability
viability of T cells ([1]; young T cells activated 48 hr in the presence of heme): improved cell viability
proliferation ([2]; young T cells activated 48 hr in the presence of SE, with and without agent): improved
proliferation ([2]; young T cells activated 48 hr in the presence of heme, with and without agent): improved
aged T cells survival (aged T cells [3]): neither BSA nor NAC improved
aged T cells proliferation (aged T cells [4]): neither BSA nor NAC improved

C=C[C@H]1C[N@@]2CC[C@H]1C[C@H]2[C@H](O)c1ccnc2ccc(OC)cc12 [Quinine, quinine]
labile iron pools (Ferro-Orange) (aged T cells [5]; aged CD3+ T cells cultured with quinine (15 uM)): increases labile iron pools
aged T cells proliferation (aged T cells [4]): rescued their proliferative capacity

COC(=O)c1ccc([C@@H]2c3[nH]c4ccccc4c3C[C@@H](C(=O)OC)N2C(=O)CCl)cc1 [RSL3]
resistance to RSL3-induced ferroptosis [6]: more resistant to RSL3-induced ferroptosis
cell viability after RSL (ferroptosis tolerance) [7]: aged T cells survived even high levels of the drug; also recorded: aged T cells are significantly more tolerant to ferroptosis than young T cells

N-methyl protoporphyrin IX
proliferation (aged T cells [4]; aged T cells supplemented with FAC plus FECH inhibitor): prevented the alleviating effect on proliferation

ferric ammonium citrate [FAC]
T cells response to vaccination ([8]; hepcidin-treated mice, in vivo administration of FAC): rescued
CD71 expression (aged T cells [9]; FAC-supplemented aged CD8+ T cells (not shown)): the shift in CD71 expression was smaller
CD71 expression (aged T cells [9]; FAC-supplemented aged T cells): downregulation of CD71
labile iron pools (FerroOrange) (aged T cells [5]; aged T cells activated ex vivo in the presence of FAC): increased labile iron pools
proliferation of antigen specific CD4+ T cells (OTII) [10]: improved proliferation
proliferation of antigen specific CD8+ T cells (OTI) [10]: not affected
mitochondrial iron pools (aged T cells [11]): replenished mitochondrial iron pools
aged T cells proliferation (aged T cells [4]): significant improvement in proliferative capacity

hemin chloride [heme]
lysosomal activity (T cells [12]): suppressed
cell viability ([1]; resting young CD3+ T cells with IL-7, heme for 48 hr): significantly reduced cell viability, in a dose-dependent manner
cell viability ([1]; resting young CD3+ T cells with IL-7, heme for 48 hr, listed as Heme): reduces cell viability
lysosomal mass (T cells [13]): downregulated lysosomal mass
CD39 expression [14]: also induced; also recorded: sufficient to induce CD39
expression of HO-1 [14]: sufficient to induce expression
expression of ferritin [14]: sufficient to induce expression
CD39 expression ([14]; listed as Heme): induces expression
expression of HO-1 ([14]; listed as Heme): induces expression
expression of ferritin ([14]; listed as Heme): induces expression
proliferation ([2]; young T cells activated 48 hr, exposure to heme or SE alone): completely blocked
FOXO1 levels (resting young T cells): dropped within 4 hr and continued to drop during the 48 hr of incubation
increase in cellular ROS (young T cells [15]): ~2 fold
lipid peroxidation (young T cells [16]): large induction in lipid peroxidation
T cell differentiation / naïve T cell pool [17]: sufficient to induce T cell differentiation and deplete the naïve T cell pool
CD63 expression (T cells [18]): induced CD63 expression, in a dose-dependent manner

hepcidin
T cells response to vaccination ([8]; mice treated with hepcidin): diminished

holo-transferrin: iron saturated transferrin
aged T cells proliferation (aged T cells [4]): significant improvement in proliferative capacity
